Assay [1] addresses AP2-associated protein kinase 1 (Homo sapiens, UniProt Q2M2I8).
For assay [2], the target named is Activin receptor type-2B (Homo sapiens, UniProt Q13705).
The target of assay [3] is T1, Bone morphogenetic protein receptor type-2 (Homo sapiens, UniProt Q13873).
T1 sequence (Q13873 whole entry): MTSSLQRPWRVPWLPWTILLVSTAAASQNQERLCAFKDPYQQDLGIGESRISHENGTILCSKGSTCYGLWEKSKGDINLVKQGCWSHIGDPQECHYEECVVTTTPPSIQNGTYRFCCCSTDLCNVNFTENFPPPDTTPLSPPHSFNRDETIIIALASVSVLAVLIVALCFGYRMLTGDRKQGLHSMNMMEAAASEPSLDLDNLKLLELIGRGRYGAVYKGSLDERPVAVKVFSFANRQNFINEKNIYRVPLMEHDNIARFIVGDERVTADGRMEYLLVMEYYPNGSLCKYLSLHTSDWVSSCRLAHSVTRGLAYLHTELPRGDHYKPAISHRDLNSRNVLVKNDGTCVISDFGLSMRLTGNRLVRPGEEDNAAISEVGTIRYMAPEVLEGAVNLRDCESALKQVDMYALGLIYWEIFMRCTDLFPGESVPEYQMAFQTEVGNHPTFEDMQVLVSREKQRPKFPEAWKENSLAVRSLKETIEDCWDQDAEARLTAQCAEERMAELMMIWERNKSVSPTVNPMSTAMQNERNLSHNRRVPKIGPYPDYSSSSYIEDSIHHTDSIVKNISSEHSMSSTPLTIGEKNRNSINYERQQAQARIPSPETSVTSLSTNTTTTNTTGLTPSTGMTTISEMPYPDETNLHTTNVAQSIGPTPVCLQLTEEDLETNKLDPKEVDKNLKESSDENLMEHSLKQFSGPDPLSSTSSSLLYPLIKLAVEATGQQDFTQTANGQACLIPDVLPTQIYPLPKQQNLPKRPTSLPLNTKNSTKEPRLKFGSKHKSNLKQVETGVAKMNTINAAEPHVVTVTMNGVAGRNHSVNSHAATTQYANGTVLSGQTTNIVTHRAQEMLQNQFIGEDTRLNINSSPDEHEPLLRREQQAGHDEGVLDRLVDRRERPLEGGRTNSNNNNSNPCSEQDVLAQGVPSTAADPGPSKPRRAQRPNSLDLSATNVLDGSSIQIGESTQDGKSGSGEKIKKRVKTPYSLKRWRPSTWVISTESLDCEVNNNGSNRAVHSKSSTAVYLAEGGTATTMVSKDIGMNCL

For assay [4], the target named is Guanine nucleotide-binding protein G(i) subunit alpha-2 (Homo sapiens, UniProt P04899).
Sequence of Guanine nucleotide-binding protein G(i) subunit alpha-2 (P04899 whole entry): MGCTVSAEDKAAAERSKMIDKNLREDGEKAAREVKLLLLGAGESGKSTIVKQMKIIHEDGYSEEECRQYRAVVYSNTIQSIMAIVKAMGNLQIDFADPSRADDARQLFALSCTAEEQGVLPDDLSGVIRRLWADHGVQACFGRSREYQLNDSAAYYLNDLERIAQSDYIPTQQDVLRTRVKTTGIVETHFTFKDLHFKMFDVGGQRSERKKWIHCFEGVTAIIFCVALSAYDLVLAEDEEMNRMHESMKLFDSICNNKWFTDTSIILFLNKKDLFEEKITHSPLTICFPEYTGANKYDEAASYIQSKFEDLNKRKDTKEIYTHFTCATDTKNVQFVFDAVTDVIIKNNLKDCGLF
For assay [5], the target named is Dual specificity mitogen-activated protein kinase kinase 2 (Homo sapiens, UniProt P36507).
Sequence of Dual specificity mitogen-activated protein kinase kinase 2 (P36507 whole entry): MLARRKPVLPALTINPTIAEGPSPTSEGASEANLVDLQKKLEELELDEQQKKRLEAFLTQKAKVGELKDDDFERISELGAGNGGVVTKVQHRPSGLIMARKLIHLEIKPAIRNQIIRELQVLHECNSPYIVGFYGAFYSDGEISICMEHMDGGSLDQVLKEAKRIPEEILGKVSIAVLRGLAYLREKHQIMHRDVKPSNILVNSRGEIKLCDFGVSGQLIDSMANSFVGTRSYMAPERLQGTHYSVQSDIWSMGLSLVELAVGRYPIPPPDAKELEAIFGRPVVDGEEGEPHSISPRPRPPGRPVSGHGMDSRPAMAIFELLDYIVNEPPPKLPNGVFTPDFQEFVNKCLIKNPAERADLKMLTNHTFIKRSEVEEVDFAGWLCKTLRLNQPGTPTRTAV
Assay [6] deals with T2, Dual specificity mitogen-activated protein kinase kinase 3 (Homo sapiens, UniProt P46734).
T2 sequence (P46734 whole entry): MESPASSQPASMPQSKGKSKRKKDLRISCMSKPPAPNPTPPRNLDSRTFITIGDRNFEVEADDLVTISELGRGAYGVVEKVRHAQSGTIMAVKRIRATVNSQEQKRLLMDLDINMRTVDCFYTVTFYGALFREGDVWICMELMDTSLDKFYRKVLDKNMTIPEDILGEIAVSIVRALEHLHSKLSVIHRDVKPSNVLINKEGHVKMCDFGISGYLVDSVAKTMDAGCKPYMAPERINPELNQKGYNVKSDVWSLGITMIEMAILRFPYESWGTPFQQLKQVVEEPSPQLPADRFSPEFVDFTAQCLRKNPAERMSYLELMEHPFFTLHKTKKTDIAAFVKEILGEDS

Assay [7] has as its target NADH dehydrogenase [ubiquinone] 1 alpha subcomplex subunit 13 (Homo sapiens, UniProt Q9P0J0).
The target of assay [8] is DNA topoisomerase 2-beta (Homo sapiens, UniProt Q02880).
Sequence of DNA topoisomerase 2-beta (Q02880 whole entry): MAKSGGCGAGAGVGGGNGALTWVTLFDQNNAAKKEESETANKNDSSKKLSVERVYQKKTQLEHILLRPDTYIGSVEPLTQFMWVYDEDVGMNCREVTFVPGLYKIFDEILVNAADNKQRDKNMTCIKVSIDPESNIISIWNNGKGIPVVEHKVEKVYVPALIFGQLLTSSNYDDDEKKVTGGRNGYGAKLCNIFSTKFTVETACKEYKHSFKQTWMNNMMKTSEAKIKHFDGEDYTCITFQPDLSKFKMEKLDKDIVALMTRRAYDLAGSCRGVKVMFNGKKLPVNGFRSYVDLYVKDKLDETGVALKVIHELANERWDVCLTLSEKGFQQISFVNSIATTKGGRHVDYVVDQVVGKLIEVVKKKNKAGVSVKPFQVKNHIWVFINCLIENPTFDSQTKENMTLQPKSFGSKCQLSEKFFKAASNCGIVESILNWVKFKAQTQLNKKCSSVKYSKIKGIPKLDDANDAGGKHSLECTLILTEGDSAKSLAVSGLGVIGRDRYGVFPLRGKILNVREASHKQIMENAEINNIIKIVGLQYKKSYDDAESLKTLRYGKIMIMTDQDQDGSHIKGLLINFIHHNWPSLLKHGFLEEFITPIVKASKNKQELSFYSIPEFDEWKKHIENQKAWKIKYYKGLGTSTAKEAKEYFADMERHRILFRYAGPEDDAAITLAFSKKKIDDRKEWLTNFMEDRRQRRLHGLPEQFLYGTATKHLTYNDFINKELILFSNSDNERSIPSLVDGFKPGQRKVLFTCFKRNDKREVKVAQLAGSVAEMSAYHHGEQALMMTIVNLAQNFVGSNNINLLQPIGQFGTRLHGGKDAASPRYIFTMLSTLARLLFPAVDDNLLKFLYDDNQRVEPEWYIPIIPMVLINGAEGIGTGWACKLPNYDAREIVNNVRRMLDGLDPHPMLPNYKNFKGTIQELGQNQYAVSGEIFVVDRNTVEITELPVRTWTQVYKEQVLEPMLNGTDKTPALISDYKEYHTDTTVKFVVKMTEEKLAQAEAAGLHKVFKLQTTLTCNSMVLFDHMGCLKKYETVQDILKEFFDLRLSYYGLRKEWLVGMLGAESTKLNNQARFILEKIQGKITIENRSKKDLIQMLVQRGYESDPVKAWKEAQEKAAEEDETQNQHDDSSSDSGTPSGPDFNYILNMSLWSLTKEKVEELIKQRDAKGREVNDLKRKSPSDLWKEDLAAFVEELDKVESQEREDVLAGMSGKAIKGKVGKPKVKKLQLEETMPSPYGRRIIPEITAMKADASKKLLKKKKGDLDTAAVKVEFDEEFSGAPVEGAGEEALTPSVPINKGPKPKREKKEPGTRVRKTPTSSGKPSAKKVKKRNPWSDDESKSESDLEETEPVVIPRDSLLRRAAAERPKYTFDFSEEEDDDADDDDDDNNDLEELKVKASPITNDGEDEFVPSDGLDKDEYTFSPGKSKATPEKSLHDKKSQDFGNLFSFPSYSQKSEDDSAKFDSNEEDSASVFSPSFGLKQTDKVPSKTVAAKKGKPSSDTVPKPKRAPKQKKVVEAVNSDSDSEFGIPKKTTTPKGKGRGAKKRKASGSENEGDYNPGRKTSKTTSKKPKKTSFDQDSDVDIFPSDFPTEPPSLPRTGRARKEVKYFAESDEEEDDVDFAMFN
Assay [9] deals with T3, Uncharacterized protein FLJ45252 (Homo sapiens, UniProt Q6ZSR9).
T3 sequence (Q6ZSR9 whole entry): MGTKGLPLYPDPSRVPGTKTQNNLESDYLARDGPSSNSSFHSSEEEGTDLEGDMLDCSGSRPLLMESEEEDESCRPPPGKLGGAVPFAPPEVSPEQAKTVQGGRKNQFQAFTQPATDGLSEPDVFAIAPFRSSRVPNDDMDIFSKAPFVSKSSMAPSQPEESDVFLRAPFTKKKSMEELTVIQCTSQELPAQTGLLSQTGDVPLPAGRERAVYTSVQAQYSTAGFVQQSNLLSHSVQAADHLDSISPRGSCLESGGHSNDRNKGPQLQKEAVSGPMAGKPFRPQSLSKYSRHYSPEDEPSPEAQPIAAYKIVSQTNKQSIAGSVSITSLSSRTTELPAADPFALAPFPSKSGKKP
The note with it: read-out: Kd apparent; k-562, colo 205, sk-n-be(2) and mv-4-11.

This is an account of results in ChEMBL document CHEMBL3991601, “The target landscape of clinical kinase drugs” (Science, 2017).

The source made the active and inactive calls.
Also: in the data inactive means no Kd found up to 30 µM.

Sequence of NADH dehydrogenase [ubiquinone] 1 alpha subcomplex subunit 13 (Q9P0J0 whole entry, one chain of several): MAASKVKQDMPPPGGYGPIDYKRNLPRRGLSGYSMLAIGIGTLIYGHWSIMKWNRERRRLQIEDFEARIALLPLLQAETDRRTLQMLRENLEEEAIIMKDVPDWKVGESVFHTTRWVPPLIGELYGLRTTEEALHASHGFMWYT
Sequence of AP2-associated protein kinase 1 (Q2M2I8 whole entry): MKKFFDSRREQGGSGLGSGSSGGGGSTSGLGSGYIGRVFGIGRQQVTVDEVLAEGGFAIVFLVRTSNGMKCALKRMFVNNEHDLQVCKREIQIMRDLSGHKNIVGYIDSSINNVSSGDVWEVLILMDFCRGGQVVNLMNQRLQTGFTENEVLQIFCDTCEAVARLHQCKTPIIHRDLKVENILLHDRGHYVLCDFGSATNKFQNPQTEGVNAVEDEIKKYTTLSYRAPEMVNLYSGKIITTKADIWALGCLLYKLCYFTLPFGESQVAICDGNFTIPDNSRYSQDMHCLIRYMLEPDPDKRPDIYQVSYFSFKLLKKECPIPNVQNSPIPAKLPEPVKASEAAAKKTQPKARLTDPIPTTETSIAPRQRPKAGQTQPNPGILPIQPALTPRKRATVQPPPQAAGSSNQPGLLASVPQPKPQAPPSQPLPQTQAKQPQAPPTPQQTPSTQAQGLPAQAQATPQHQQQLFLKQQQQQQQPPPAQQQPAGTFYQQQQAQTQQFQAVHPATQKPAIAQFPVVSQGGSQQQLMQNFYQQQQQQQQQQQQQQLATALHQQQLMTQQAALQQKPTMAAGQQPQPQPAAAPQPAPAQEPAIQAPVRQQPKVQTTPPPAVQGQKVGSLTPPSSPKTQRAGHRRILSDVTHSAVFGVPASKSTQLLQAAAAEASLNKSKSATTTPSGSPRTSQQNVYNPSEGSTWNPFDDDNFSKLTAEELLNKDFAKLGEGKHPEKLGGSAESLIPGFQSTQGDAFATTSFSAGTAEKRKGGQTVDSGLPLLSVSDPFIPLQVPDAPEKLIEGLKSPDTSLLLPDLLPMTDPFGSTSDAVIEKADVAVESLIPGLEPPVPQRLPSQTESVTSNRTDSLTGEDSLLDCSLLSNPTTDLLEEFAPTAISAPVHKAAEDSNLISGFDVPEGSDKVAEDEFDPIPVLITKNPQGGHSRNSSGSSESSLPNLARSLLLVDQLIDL
Sequence of Activin receptor type-2B (Q13705 whole entry): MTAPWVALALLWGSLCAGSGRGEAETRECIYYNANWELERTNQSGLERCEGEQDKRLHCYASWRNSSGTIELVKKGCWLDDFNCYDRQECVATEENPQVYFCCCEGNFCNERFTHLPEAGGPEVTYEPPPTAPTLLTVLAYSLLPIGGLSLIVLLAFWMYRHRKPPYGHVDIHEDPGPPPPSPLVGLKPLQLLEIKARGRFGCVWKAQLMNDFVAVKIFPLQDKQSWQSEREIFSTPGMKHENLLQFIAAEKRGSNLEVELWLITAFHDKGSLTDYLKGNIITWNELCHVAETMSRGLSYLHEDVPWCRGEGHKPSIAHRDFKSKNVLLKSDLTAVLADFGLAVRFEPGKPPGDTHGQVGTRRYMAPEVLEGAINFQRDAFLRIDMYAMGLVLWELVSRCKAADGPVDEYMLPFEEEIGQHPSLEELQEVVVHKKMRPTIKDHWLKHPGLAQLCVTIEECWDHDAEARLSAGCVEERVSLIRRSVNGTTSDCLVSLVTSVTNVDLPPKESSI

With `COc1ccc2c(OCc3nnc4ccc(-c5ccccc5)nn34)ccnc2c1` [AMG-208], the Kd in assay [1], in assay [2], in assay [3], in assay [4], in assay [5] and in assay [6] was > 30 µM (inactive) throughout. The Kd in assay [7], in assay [8] and in assay [9] was > 30 µM (inactive) each time.
Regarding `Cc1cc(-c2cc(OC(=O)c3ccccc3)ccc2Cl)cc2nnc(Nc3ccc(OCCN4CCCC4)cc3)nc12` [TG100-801], the Kd in [1] was > 30 µM (inactive); in [2], 0.419 µM; in assay [3], > 30 µM (inactive); in assay [4] it was > 30 µM (inactive); in assay [5], > 30 µM (inactive); in assay [6] it was > 30 µM (inactive). The Kd in assay [7], in assay [8] and in assay [9] was > 30 µM (inactive) throughout.
On to `O=C(NC[C@H](O)CO)c1ccncc1Nc1ccc(I)cc1F` [PIMASERTIB], for which the Kd in assay [1] was > 30 µM (inactive); in assay [2], > 30 µM (inactive); in assay [3], > 30 µM (inactive); in [4], > 30 µM (inactive); in assay [5] it was 0.038 µM (active); in assay [6] it was > 30 µM (inactive). In addition, the Kd in assay [7], in assay [8] and in [9] was > 30 µM (inactive) throughout.
`c1cc(OCCN2CCCCC2)cc(-c2n[nH]c3ccc(-c4nc[nH]n4)cc23)c1` [CC-401]: the Kd in [1] is 2.61 µM (active); in assay [2] it was > 30 µM (inactive); in assay [3], > 30 µM (inactive); in assay [4], > 30 µM (inactive); in [5] it was > 30 µM (inactive); in assay [6], > 30 µM (inactive). Besides, the results for the Kd in assay [7], in assay [8] and in assay [9] were > 30 µM (inactive), > 30 µM (inactive) and 2.53 µM (active), respectively.
As for `CC(C)CC(=O)Nc1[nH]nc2c1CN(C(=O)C1CCN(C)CC1)C2(C)C` [PHA-793887], the Kd in assay [1], in assay [2], in assay [3], in [4], in [5] and in assay [6] was > 30 µM (inactive) in each case. The Kd in [7], in assay [8] and in assay [9] was > 30 µM (inactive) throughout.
Turning to `S=C(NCc1ccc2c(c1)OCO2)N1CCN(c2ncnc3c2oc2ccccc23)CC1` [AMUVATINIB], the Kd in assay [1], in assay [2], in assay [3], in assay [4], in [5] and in assay [6] was > 30 µM (inactive) throughout. Also, the Kd in [7], in assay [8] and in assay [9] was > 30 µM (inactive) in each case.
As to `COc1cc(F)c(F)c(Nc2ccc(I)cc2F)c1NS(=O)(=O)C1(C[C@H](O)CO)CC1` [REFAMETINIB], the Kd is > 30 µM (inactive) in assay [1]; > 30 µM (inactive) in [2]; > 30 µM (inactive) in [3]; > 30 µM (inactive) in [4]; 0.176 µM (active) in [5]; > 30 µM (inactive) in assay [6]. In addition, the Kd in [7], in [8] and in assay [9] was > 30 µM (inactive) throughout.
As to `C=CC(=O)Nc1cccc(Nc2nc(Nc3ccc(N4CCN(C(C)=O)CC4)cc3OC)ncc2C(F)(F)F)c1` [ROCILETINIB], the Kd in assay [1], in assay [2], in assay [3], in assay [4], in [5] and in assay [6] was > 30 µM (inactive) in each case. In addition, the Kd in [7], in assay [8] and in assay [9] was > 30 µM (inactive) throughout.
For `COc1cc(Nc2ncc(F)c(Nc3ccc4c(n3)N(COP(=O)(O)O)C(=O)C(C)(C)O4)n2)cc(OC)c1OC` [FOSTAMATINIB], the Kd in assay [1], in assay [2], in assay [3], in assay [4], in [5] and in assay [6] was > 30 µM (inactive) each time. Besides, the Kd in assay [7], in assay [8] and in assay [9] was > 30 µM (inactive) in each case.
`NC[C@@](O)(c1ccc(Cl)cc1)c1ccc(-c2cn[nH]c2)cc1` [AT-13148]: the Kd in assay [1], in [2], in assay [3], in [4], in [5] and in assay [6] was > 30 µM (inactive) throughout. For the same molecule, the Kd in [7], in assay [8] and in assay [9] was > 30 µM (inactive) throughout.
As to `O=S(=O)(c1cccc2c(O)nccc12)N1CCCNCC1` [HYDROXYFASUDIL], the Kd in assay [1], in assay [2], in assay [3], in [4], in assay [5] and in assay [6] was > 30 µM (inactive) throughout. In addition, the Kd in assay [7], in assay [8] and in assay [9] was > 30 µM (inactive) throughout.
Consider `CCc1nc(C(N)=O)c(Nc2ccc(N3CCC(N4CCN(C)CC4)CC3)c(OC)c2)nc1NC1CCOCC1` [GILTERITINIB], for which the Kd was 0.025 µM (active) in assay [1]; > 30 µM (inactive) in assay [2]; > 30 µM (inactive) in [3]; > 30 µM (inactive) in assay [4]; 0.502 µM (active) in assay [5]; > 30 µM (inactive) in [6]. Besides, the Kd in assay [7] was > 30 µM (inactive); in assay [8], > 30 µM (inactive); in assay [9], 0.011 µM (active).
Consider `O[C@H]1CC[C@H](Nc2ncc3nc(Nc4c(F)cc(F)cc4F)n([C@H]4CCOC4)c3n2)CC1` [TANZISERTIB], for which the Kd in assay [1], in assay [2], in [3], in assay [4], in assay [5] and in [6] was > 30 µM (inactive) throughout. In addition, the Kd in assay [7], in [8] and in assay [9] was > 30 µM (inactive) throughout.
Take `C[C@]1(O)C[C@@H](c2nc(-c3ccc4ccc(-c5ccccc5)nc4c3)c3c(N)nccn32)C1` [LINSITINIB]: the Kd in [1] is > 30 µM (inactive); in [2], > 30 µM (inactive); in [3], > 30 µM (inactive); in assay [4], > 30 µM (inactive); in assay [5] it was 1.14 µM (active); in assay [6] it was > 30 µM (inactive). The Kd in [7], in [8] and in assay [9] was > 30 µM (inactive) each time.
